IC50 data for 34 compounds are collected here from ChEMBL document CHEMBL1145878, “Synthesis and evaluation of isatins and thiosemicarbazone derivatives against cruzain, falcipain-2 and rhodesain” (Bioorg Med Chem Lett, 2003).

For assay [1], the target named is T1, Falcipain 2 (Plasmodium falciparum, UniProt Q9N6S8).
T1 sequence (Q9N6S8 whole entry): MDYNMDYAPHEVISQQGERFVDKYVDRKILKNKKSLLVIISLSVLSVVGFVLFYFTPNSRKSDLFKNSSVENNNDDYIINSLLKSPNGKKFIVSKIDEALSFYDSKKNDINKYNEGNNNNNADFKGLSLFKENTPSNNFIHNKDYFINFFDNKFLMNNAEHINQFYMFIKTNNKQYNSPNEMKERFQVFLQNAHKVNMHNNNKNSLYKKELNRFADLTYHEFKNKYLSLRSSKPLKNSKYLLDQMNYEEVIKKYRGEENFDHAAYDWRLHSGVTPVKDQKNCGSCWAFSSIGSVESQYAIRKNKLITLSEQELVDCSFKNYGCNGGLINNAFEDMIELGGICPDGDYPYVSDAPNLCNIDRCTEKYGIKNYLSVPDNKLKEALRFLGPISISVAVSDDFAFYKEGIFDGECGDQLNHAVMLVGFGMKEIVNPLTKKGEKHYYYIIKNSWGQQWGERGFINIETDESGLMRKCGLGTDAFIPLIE
In words: Inhibitory activity against Falcipain-2; no effect.

The target of assay [2] is T2, Cruzipain (Trypanosoma cruzi, UniProt P25779). In words: Inhibitory activity against the Trypanosoma cruzi cysteine protease cruzain.
T2 sequence (P25779 whole entry): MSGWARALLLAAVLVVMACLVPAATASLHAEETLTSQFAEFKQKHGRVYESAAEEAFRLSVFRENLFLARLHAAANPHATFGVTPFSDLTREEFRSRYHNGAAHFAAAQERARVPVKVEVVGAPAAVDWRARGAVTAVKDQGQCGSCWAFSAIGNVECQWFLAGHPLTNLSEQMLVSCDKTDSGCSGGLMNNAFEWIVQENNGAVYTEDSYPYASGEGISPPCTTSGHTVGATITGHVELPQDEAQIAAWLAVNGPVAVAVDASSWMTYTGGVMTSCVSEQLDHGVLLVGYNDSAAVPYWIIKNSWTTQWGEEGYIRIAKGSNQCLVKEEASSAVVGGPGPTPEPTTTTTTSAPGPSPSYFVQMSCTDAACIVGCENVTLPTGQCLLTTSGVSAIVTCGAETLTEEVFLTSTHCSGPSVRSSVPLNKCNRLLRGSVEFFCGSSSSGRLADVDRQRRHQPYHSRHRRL
A further assay has as its target Rhodesain (Trypanosoma brucei rhodesiense, UniProt Q95PM0). In words: Inhibitory activity against Trypanosoma brucei rhodesiense cysteine protease rhodesain.
Assay [3] addresses T1, Falcipain 2. In words: Inhibitory activity against Falcipain-2.
Assay [4] has as its target T1, Falcipain 2. In words: Inhibitory activity against Falcipain-2; No effect.
Assay [5] concerns the target T2, Cruzipain. The assay is described as follows: Inhibitory activity against Cruzain;range is 20-50.

Rhodesain, sequence (Q95PM0 whole entry): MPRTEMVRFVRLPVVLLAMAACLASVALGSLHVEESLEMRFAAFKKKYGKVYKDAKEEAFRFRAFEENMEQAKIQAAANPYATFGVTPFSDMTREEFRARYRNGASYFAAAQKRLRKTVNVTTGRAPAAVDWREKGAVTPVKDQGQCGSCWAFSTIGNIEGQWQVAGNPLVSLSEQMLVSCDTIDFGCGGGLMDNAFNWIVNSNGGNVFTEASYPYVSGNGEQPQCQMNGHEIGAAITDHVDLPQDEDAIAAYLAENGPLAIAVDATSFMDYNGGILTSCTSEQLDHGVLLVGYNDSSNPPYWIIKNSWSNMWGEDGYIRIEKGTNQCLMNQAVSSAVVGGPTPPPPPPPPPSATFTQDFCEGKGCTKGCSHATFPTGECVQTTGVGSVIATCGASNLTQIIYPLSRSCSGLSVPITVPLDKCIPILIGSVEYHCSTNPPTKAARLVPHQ

For orientation: IC50 means the midpoint of a concentration-inhibition curve. High values mean weaker potency in that assay, low ones greater potency in that assay. `Cc1ccc(C)c(CN2C(=O)C(=O)c3cc(C)ccc32)c1`: the IC50 result against Falcipain 2 [1] was “Not Active”; on Cruzipain [2], 80 µM; on Rhodesain, greater than 10 µM.

Take `O=C1C(=O)N(Cc2ccccc2)c2ccc(Cl)cc21`: the values for the IC50 on Cruzipain [2], on Falcipain 2 [3] and at Rhodesain were 90 µM, 46.9 µM and greater than 10 µM, respectively.

On to `Cc1cc(C)c2c(c1)C(=O)C(=O)N2`, for which the IC50 result is “Not Active” against Falcipain 2 [1] and greater than 10 µM on Cruzipain [2].

Consider `O=C1C(=O)N(c2ccccc2)c2ccccc21` [PHENYL ISATIN], for which the IC50 entry is “Not Active” against Falcipain 2 [1] and greater than 10 µM against Cruzipain [2].

As to `O=C1C(=O)N(Cc2ccccc2)c2ccc(I)cc21`, the IC50 against Cruzipain [2] was 90 µM; on Rhodesain, greater than 10 µM.

Consider `Cc1cc(C)c2[nH]c(O)c(/N=N/C(=N)S)c2c1`, for which the half-inhibitory concentration (IC50) against Cruzipain [2] worked out at 16 µM; against Falcipain 2 [3], 13.2 µM; against Rhodesain it was 15 µM.

Take `NC(=S)/N=N/c1c(O)[nH]c2ccc(Br)cc12`: the IC50 is 20 µM on Cruzipain [2], 29.6 µM against Falcipain 2 [3] and 7 µM on Rhodesain.

Take `Cc1ccc2c(c1)C(=O)C(=O)N2`: the values for the IC50 at Cruzipain [2] and against Falcipain 2 [4] were greater than 10 µM and “Not Active”, respectively.

For the compound `O=C1C(=O)N(Cc2ccc(Cl)cc2)c2ccc(Cl)cc21`, the IC50 is 6 µM against Cruzipain [2], 31.2 µM on Falcipain 2 [3] and greater than 10 µM on Rhodesain.

As for `NC(=S)/N=N/c1c(O)[nH]c2ccc(I)cc12`, the results for the IC50 at Cruzipain [2], against Falcipain 2 [3] and on Rhodesain were 9 µM, 28.7 µM and 1 µM, respectively.

As for `Cc1ccc2c(c1)C(=O)C(=O)N2Cc1ccccc1-c1ccccc1`, the figures for the IC50 against Cruzipain [2], against Falcipain 2 [3] and at Rhodesain were 2.8 µM, 9.2 µM and greater than 10 µM, respectively.

As for `Cc1ccc2c(c1)C(=O)C(=O)N2Cc1ccc(Cl)cc1`, the IC50 result at Falcipain 2 [1] was “Not Active”; at Cruzipain [2] it was greater than 10 µM; against Rhodesain it was greater than 10 µM.

On to `COc1cccc(CN2C(=O)C(=O)c3cc(Cl)ccc32)c1`, for which the IC50 was greater than 10 µM on Cruzipain [2], 34.6 µM at Falcipain 2 [3] and greater than 10 µM on Rhodesain.

On to `O=C1C(=O)N(C(=O)c2ccccc2)c2ccccc21`, for which the IC50 result against Falcipain 2 [1] was “Not Active”; on Rhodesain, 100 µM.

As for `NC(=S)/N=N/c1c(O)[nH]c2ccccc12`, the figures for the IC50 against Cruzipain [2], against Falcipain 2 [3] and against Rhodesain were 8 µM, 38.8 µM and 3.5 µM, respectively.

Regarding `O=C1C(=O)N(C(=O)OCc2ccccc2)c2ccccc21`, the IC50 result was “Not Active” at Falcipain 2 [1] and 30 µM on Rhodesain.

`O=C1Nc2ccc(I)cc2C1=O` [5-IODOISATIN]: the figures for the IC50 result against Falcipain 2 [1] and at Cruzipain [2] were “Not Active” and greater than 10 µM, respectively.

With `O=C1C(=O)N(C(=O)OCc2ccccc2)c2ccc(F)cc21`, the IC50 against Cruzipain [2] and against Rhodesain was greater than 10 µM each time.

For the compound `O=C1Nc2ccc(OC(F)(F)F)cc2C1=O`, the IC50 result was “Not Active” against Falcipain 2 [1], greater than 10 µM on Cruzipain [2] and greater than 10 µM against Rhodesain.

Take `O=C1Nc2ccc(F)cc2C1=O` [5-FLUOROISATIN]: the IC50 result was “Not Active” on Falcipain 2 [1] and greater than 10 µM against Cruzipain [2].

Take `O=C1C(=O)N(S(=O)(=O)c2ccccc2)c2ccccc21`: the IC50 result against Falcipain 2 [1] is “Not Active”; on Rhodesain, 15 µM.

With `O=C1Nc2ccccc2C1=O` [ISATIN], the IC50 was greater than 10 µM against Cruzipain [2], “Not Active” at Falcipain 2 [4] and greater than 10 µM against Rhodesain.

With `O=C1Nc2ccc([N+](=O)[O-])cc2C1=O` [5-NITROISATIN], the figures for the IC50 on Cruzipain [2], at Falcipain 2 [3] and against Rhodesain were greater than 10 µM, 42.6 µM and greater than 10 µM, respectively.

As for `Cc1ccc2[nH]c(O)c(/N=N/C(=N)S)c2c1`, the IC50 was 50 µM against Cruzipain [5], 43.9 µM against Falcipain 2 [3] and 15 µM on Rhodesain.

As to `NC(=S)/N=N/c1c(O)[nH]c2ccc(Cl)cc12`, the IC50 is 21 µM on Cruzipain [2], 32.8 µM against Falcipain 2 [3] and 6 µM at Rhodesain.

For `NC(=S)/N=N/c1c(O)[nH]c2ccc([N+](=O)[O-])cc12`, the figures for the IC50 on Cruzipain [2], on Falcipain 2 [3] and on Rhodesain were 30 µM, 4.4 µM and 17 µM, respectively.

Regarding `NC(=S)/N=N/c1c(O)[nH]c2ccc(F)cc12`, the 50% inhibitory concentration (IC50) against Cruzipain [2] worked out at 30 µM; against Falcipain 2 [3], 38.6 µM; against Rhodesain it was 15 µM.

In the case of `Cc1cc(Cl)cc2c(/N=N/C(=N)S)c(O)[nH]c12`, the values for the IC50 on Cruzipain [2], on Falcipain 2 [3] and on Rhodesain were 10.5 µM, 9.4 µM and 3 µM, respectively.

Turning to `COc1cccc(CN2C(=O)C(=O)c3cc(C)ccc32)c1`, the IC50 at Cruzipain [2] was 2 µM; at Falcipain 2 [3], 21.9 µM; against Rhodesain, greater than 10 µM.

In the case of `O=C1Nc2ccc(Br)cc2C1=O`, the IC50 result is “Not Active” at Falcipain 2 [1] and greater than 10 µM against Cruzipain [2].

Take `O=C1C(=O)N(Cc2ccccc2)c2ccccc21`: the IC50 entry against Falcipain 2 [1] was “Not Active”; on Cruzipain [2], greater than 10 µM; at Rhodesain, greater than 10 µM.

On to `O=C1Nc2ccc(Cl)cc2C1=O`, for which the IC50 entry at Falcipain 2 [1] is “Not Active”; on Cruzipain [2], greater than 10 µM.

Consider `CN1C(=O)C(=O)c2ccccc21`, for which the IC50 result against Falcipain 2 [1] is “Not Active”; against Cruzipain [2] it was greater than 10 µM.

For `O=C1C(=O)N(C(=O)OCc2ccccc2)c2ccc(Cl)cc21`, the IC50 result against Falcipain 2 [1] is “Not Active”; at Cruzipain [2], 80 µM; against Rhodesain, greater than 10 µM.
